The record followed here is patent publication US20250154686A1, “COMPOUND LIBRARY” (CHUGAI SEIYAKU KABUSHIKI KAISHA, priority 2021, published 2025).

In this assay the target is T1, Bcl-2 protein (Recombinant Human Bcl-2 Protein) (Homo sapiens, UniProt P10415).
T1 construct: purchased Novus Biologicals NBP2-34889
As to the kind of experiment: AS-MS evaluation of binding of the Example 4 mixture library (1200 compounds/well) to Bcl-2, ASMS ratio (%). Particulars: mixture library, value belongs to the MS peak assigned to the compound; for ASMS ratio (%) n = 1: replicate n = 1; for ASMS ratio (%) n = 2: replicate n = 2. The essentials: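 ASMS ratio (%) derived from reverse-phase LC/MS of three samples: Bcl-2 (20 μM) incubation after SEC, protein-free standard without SEC, and protein-free blank after SEC. Compounds were pooled at 1200/well, 20 nM each, incubated 1 h, 23 °C, dark, in Tris-HCl pH 7.4 buffer with Tween-20 and DTT.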

T1 sequence (P10415 whole entry): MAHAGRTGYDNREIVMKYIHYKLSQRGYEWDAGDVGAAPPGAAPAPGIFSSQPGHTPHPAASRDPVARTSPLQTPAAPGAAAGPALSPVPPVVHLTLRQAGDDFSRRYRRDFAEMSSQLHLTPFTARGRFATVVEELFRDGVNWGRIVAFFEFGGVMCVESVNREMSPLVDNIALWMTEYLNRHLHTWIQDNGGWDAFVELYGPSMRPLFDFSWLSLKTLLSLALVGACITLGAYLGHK

On to `CCOc1cncc(-c2cnn(-c3cc(C(=O)N4CCN(c5ccc(C(=O)NS(=O)(=O)C(C)(C)C)nn5)CC4)cc(C(F)(F)F)c3)c2)c1` [Compound B2L022-01, N-tert-Butylsulfonyl-6-[4-[3-[4-(5-ethoxypyridin-3-yl)pyrazol-1-yl]-5-(trifluoromethyl)benzoyl]piperazin-1-yl]pyridazine-3-carboxamide], for which the “ASMS ratio (%) n = 1” value was 0.0% and the “ASMS ratio (%) n = 2” value is recorded as 0.0%.

Take `CCOc1cccc(-c2csc(C(=O)N3CCN(c4ccc(C(=O)NS(=O)(=O)C(C)(C)C)cc4)CC3)c2)c1` [Compound B2L023-01, N-tert-Butylsulfonyl-4-[4-[4-(3-ethoxyphenyl)thiophene-2-carbonyl]piperazin-1-yl]benzamide]: the “ASMS ratio (%) n = 1” value came to 0.0% and the “ASMS ratio (%) n = 2” value is 0.0%.

As to `CCOc1cncc(-c2csc(C(=O)N3CCN(c4ccc(C(=O)NS(=O)(=O)C(C)(C)C)cc4)CC3)c2)c1` [Compound B2L024-01, N-tert-Butylsulfonyl-4-[4-[4-(5-ethoxypyridin-3-yl)thiophene-2-carbonyl]piperazin-1-yl]benzamide], the “ASMS ratio (%) n = 1” value worked out at 0.0% and the “ASMS ratio (%) n = 2” value is on record as 0.0%.

Turning to `CCOc1cccc(-c2ccc(C(=O)N3CCN(c4ccc(C(=O)NS(=O)(=O)C(C)(C)C)cc4)CC3)cc2C)c1` [Compound B2L025-01, N-tert-Butylsulfonyl-4-[4-[4-(3-ethoxyphenyl)-3-methylbenzoyl]piperazin-1-yl]benzamide], the “ASMS ratio (%) n = 1” value is 0.0% and the “ASMS ratio (%) n = 2” value turned out to be 0.0%. As to `CCOc1cncc(-c2ccc(C(=O)N3CCN(c4ccc(C(=O)NS(=O)(=O)C(C)(C)C)cc4)CC3)cc2C)c1` [Compound B2L026-01, N-tert-Butylsulfonyl-4-[4-[4-(5-ethoxypyridin-3-yl)-3-methylbenzoyl]piperazin-1-yl]benzamide], the “ASMS ratio (%) n = 1” value is recorded as 0.0% and the “ASMS ratio (%) n = 2” value worked out at 0.0%. As to `CCOc1cccc(-c2ccc(C(=O)N3CCN(c4ccc(C(=O)NS(=O)(=O)C(C)(C)C)cc4)CC3)cc2F)c1` [Compound B2L027-01, N-tert-Butylsulfonyl-4-[4-[4-(3-ethoxyphenyl)-3-fluorobenzoyl]piperazin-1-yl]benzamide], the “ASMS ratio (%) n = 1” value was determined as 0.0% and the “ASMS ratio (%) n = 2” value was 0.0%. `CCOc1cncc(-c2ccc(C(=O)N3CCN(c4ccc(C(=O)NS(=O)(=O)C(C)(C)C)cc4)CC3)cc2F)c1` [Compound B2L028-01, N-tert-Butylsulfonyl-4-[4-[4-(5-ethoxypyridin-3-yl)-3-fluorobenzoyl]piperazin-1-yl]benzamide]: the “ASMS ratio (%) n = 1” value is reported as 0.0% and the “ASMS ratio (%) n = 2” value is reported as 0.0%. For `CCOc1cccc(C#Cc2ccccc2C(=O)N2CCN(c3ccc(C(=O)NS(=O)(=O)C(C)(C)C)cc3)CC2)c1` [Compound B2L029-01, N-tert-Butylsulfonyl-4-[4-[2-[2-(3-ethoxyphenyl)ethynyl]benzoyl]piperazin-1-yl]benzamide], the “ASMS ratio (%) n = 1” value is given as 0.0%. Consider `CCOc1cncc(C#Cc2ccccc2C(=O)N2CCN(c3ccc(C(=O)NS(=O)(=O)C(C)(C)C)cc3)CC2)c1` [Compound B2L030-01, N-tert-Butylsulfonyl-4-[4-[2-[2-(5-ethoxypyridin-3-yl)ethynyl]benzoyl]piperazin-1-yl]benzamide], for which the “ASMS ratio (%) n = 1” value was 0.0% and the “ASMS ratio (%) n = 2” value worked out at 0.0%.

As for `CCOc1cccc(C#Cc2cncc(C(=O)N3CCN(c4ccc(C(=O)NS(=O)(=O)C(C)(C)C)cc4)CC3)c2)c1` [Compound B2L031-01, N-tert-Butylsulfonyl-4-[4-[5-[2-(3-ethoxyphenyl)ethynyl]pyridine-3-carbonyl]piperazin-1-yl]benzamide], the “ASMS ratio (%) n = 1” value turned out to be 0.0% and the “ASMS ratio (%) n = 2” value is listed as 0.0%. As to `CCOc1cncc(C#Cc2cncc(C(=O)N3CCN(c4ccc(C(=O)NS(=O)(=O)C(C)(C)C)cc4)CC3)c2)c1` [Compound B2L032-01, N-tert-Butylsulfonyl-4-[4-[5-[2-(5-ethoxypyridin-3-yl)ethynyl]pyridine-3-carbonyl]piperazin-1-yl]benzamide], the “ASMS ratio (%) n = 1” value came out at 0.0% and the “ASMS ratio (%) n = 2” value was −1.0%. On the same counts, the results for `CCOc1cccc(-c2ccccc2CCC(=O)N2CCN(c3ccc(C(=O)NS(=O)(=O)C(C)(C)C)cc3)CC2)c1` [Compound B2L033-01, N-tert-Butylsulfonyl-4-[4-[3-[2-(3-ethoxyphenyl)phenyl]propanoyl]piperazin-1-yl]benzamide] are 0.0% and 0.0%. Consider `CCOc1cncc(-c2ccccc2CCC(=O)N2CCN(c3ccc(C(=O)NS(=O)(=O)C(C)(C)C)cc3)CC2)c1` [Compound B2L034-01, N-tert-Butylsulfonyl-4-[4-[3-[2-(5-ethoxypyridin-3-yl)phenyl]propanoyl]piperazin-1-yl]benzamide], for which the “ASMS ratio (%) n = 1” value is on record as 1.6% and the “ASMS ratio (%) n = 2” value is 3.5%. Consider `CCOc1cccc(-c2ccc(C(=O)N3CCN(c4ccc(C(=O)NS(=O)(=O)C(C)(C)C)cc4)CC3)c3ccccc23)c1` [Compound B2L035-01, N-tert-Butylsulfonyl-4-[4-[4-(3-ethoxyphenyl)naphthalene-1-carbonyl]piperazin-1-yl]benzamide], for which the “ASMS ratio (%) n = 1” value was determined as 0.0%. As to `CCOc1cncc(-c2ccc(C(=O)N3CCN(c4ccc(C(=O)NS(=O)(=O)C(C)(C)C)cc4)CC3)c3ccccc23)c1` [Compound B2L036-01, N-tert-Butylsulfonyl-4-[4-[4-(5-ethoxypyridin-3-yl)naphthalene-1-carbonyl]piperazin-1-yl]benzamide], the “ASMS ratio (%) n = 1” value is 0.0% and the “ASMS ratio (%) n = 2” value is reported as 0.0%.

Turning to `CCOc1cccc(-c2cc(C(=O)N3CCN(c4ccc(C(=O)NS(=O)(=O)C(C)(C)C)cc4)CC3)cc(C(C)(C)C)c2)c1` [Compound B2L037-01, 4-[4-[3-tert-Butyl-5-(3-ethoxyphenyl)benzoyl]piperazin-1-yl]-N-tert-butylsulfonylbenzamide], the “ASMS ratio (%) n = 1” value was found to be 0.0% and the “ASMS ratio (%) n = 2” value was 0.0%. For `CCOc1cncc(-c2cc(C(=O)N3CCN(c4ccc(C(=O)NS(=O)(=O)C(C)(C)C)cc4)CC3)cc(C(C)(C)C)c2)c1` [Compound B2L038-01, 4-[4-[3-tert-Butyl-5-(5-ethoxypyridin-3-yl)benzoyl]piperazin-1-yl]-N-tert-butylsulfonylbenzamide], the “ASMS ratio (%) n = 1” value is on record as 0.0% and the “ASMS ratio (%) n = 2” value worked out at 0.0%. For `CCOc1cccc(-c2cc(C(=O)N3CCN(c4ccc(C(=O)NS(=O)(=O)C(C)(C)C)cc4)CC3)cc(C(F)(F)F)c2)c1` [Compound B2L039-01, N-tert-Butylsulfonyl-4-[4-[3-(3-ethoxyphenyl)-5-(trifluoromethyl)benzoyl]piperazin-1-yl]benzamide], the “ASMS ratio (%) n = 1” value is given as 0.0% and the “ASMS ratio (%) n = 2” value was 0.0%.

Regarding `CCOc1cncc(-c2cc(C(=O)N3CCN(c4ccc(C(=O)NS(=O)(=O)C(C)(C)C)cc4)CC3)cc(C(F)(F)F)c2)c1` [Compound B2L040-01, N-tert-Butylsulfonyl-4-[4-[3-(5-ethoxypyridin-3-yl)-5-(trifluoromethyl)benzoyl]piperazin-1-yl]benzamide], the “ASMS ratio (%) n = 1” value is −0.2% and the “ASMS ratio (%) n = 2” value was 1.0%.
